Test results reported in US20260092070A1, “INHIBITORS OF CANINE JANUS KINASE AND USES THEREOF” (ANIMOL DISCOVERY, INC., priority 2023, published 2026).

Tests used:
[1] = target: JAK-1 (Homo sapiens, UniProt P23458); experiment: JAK enzymatic assay (Eurofins KinaseProfiler/IC50Profiler, radiometric), JAK-1; settings: for JAK1/JAK2 selectivity: selectivity IC50 ratio for JAK1 versus JAK2, human enzymes
Procedure: (§1) All enzyme assays were conducted according to Eurofins Discovery's KinaseProfiler™ and IC50Profiler™ services.
(SEQ ID NO.: 1) peptide substrate, 10 mM magnesium acetate and [gamma-33P]-ATP (specific activity and concentration as required). The reaction was initiated by the addition of the Mg/ATP mix. After incubation for 40 minutes at room temperature, the reaction was stopped by the addition of phosphoric acid to a concentration of 0.5%. An aliquot of the reaction was then spotted onto a filter and washed four times for 4 minutes in 0.425% phosphoric acid and once with methanol prior to drying and scintillation counting. A known inhibitor, Staurosporine, was used as a positive control for the assay.
Data was then imported into an internal application where each data point was expressed as % inhibition based on uninhibited and no enzyme controls. […] Inhibition values for the JAK enzymes (IC50 values) for each compound were stratified into four groups.

[2] = target: Human JAK-2 (Homo sapiens, UniProt O60674); experiment: JAK enzymatic assay (Eurofins KinaseProfiler/IC50Profiler, radiometric), JAK-2; assay type: biochemical; settings: human JAK-2 enzyme, 9 concentrations; read-out: JAK2 affinity (IC50) category
Procedure: as §1
(SEQ ID NO: 2) peptide substrate, 10 mM magnesium acetate and [gamma-33P]-ATP (specific activity and concentration as required). The reaction was initiated by the addition of the Mg/ATP mix. After incubation for 40 minutes at room temperature, the reaction was stopped by the addition of phosphoric acid to a concentration of 0.5%. An aliquot of the reaction was then spotted onto a filter and washed four times for 4 minutes in 0.425% phosphoric acid and once with methanol prior to drying and scintillation counting.
(§2) Data was then imported into an internal application where each data point was expressed as % inhibition based on uninhibited and no enzyme controls.

[3] = target: T1, Human JAK-3 (Homo sapiens, UniProt P52333); experiment: JAK enzymatic assay (Eurofins KinaseProfiler/IC50Profiler, radiometric), JAK-3; assay type: biochemical; settings: human JAK-3 enzyme, 9 concentrations; read-out: JAK3 affinity (IC50) category
T1 construct: purchased Eurofins Discovery (KinaseProfiler / IC50Profiler service)
T1 sequence (P52333 1-1124): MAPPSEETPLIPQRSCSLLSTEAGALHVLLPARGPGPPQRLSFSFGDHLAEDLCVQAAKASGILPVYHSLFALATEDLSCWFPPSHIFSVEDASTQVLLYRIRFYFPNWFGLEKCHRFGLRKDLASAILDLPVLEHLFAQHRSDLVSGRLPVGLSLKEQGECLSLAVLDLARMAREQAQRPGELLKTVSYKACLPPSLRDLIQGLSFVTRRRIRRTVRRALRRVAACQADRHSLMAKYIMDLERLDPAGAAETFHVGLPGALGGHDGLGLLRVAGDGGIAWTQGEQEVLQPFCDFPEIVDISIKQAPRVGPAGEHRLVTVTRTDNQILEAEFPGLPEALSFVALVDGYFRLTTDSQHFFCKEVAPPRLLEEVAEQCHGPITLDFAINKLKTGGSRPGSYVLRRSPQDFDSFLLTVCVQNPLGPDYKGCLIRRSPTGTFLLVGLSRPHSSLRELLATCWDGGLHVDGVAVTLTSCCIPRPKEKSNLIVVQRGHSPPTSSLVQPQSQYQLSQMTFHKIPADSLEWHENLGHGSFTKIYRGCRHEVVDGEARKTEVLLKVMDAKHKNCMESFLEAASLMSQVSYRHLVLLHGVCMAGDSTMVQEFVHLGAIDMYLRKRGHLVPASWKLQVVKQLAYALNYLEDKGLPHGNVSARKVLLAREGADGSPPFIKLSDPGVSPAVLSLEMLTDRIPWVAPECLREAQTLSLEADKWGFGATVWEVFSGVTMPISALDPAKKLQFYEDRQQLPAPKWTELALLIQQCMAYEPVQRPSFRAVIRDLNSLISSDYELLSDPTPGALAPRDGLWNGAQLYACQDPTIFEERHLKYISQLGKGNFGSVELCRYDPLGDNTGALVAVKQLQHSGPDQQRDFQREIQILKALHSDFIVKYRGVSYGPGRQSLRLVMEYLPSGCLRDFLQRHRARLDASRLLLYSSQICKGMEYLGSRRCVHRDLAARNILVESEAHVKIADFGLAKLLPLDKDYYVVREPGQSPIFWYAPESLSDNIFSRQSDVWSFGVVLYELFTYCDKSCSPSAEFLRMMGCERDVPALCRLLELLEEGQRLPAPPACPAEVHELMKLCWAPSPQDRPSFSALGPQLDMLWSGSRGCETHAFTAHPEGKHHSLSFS
Procedure: as §1
(SEQ ID NO: 3) peptide substrate, 10 mM magnesium acetate and [gamma-33P]-ATP (specific activity and concentration as required). The reaction was initiated by the addition of the Mg/ATP mix. After incubation for 40 minutes at room temperature, the reaction was stopped by the addition of phosphoric acid to a concentration of 0.5%. An aliquot of the reaction was then spotted onto a filter and washed four times for 4 minutes in 0.425% phosphoric acid and once with methanol prior to drying and scintillation counting.
as §2

[4] = target: T2, Human TYK-2 (Homo sapiens, UniProt P29597); experiment: JAK enzymatic assay (Eurofins KinaseProfiler/IC50Profiler, radiometric), TYK-2; assay type: biochemical; settings: human TYK-2 enzyme, 9 concentrations; read-out: TYK2 affinity (IC50) category
T2 construct: purchased Eurofins Discovery (KinaseProfiler / IC50Profiler service)
Procedure: Human TYK-2 (Uniprot ID: P29597) was incubated with 8 mM MOPS pH 7.0, 0.2 mM EDTA, 250 μM […]

Chain of JAK-1 (P23458 whole entry): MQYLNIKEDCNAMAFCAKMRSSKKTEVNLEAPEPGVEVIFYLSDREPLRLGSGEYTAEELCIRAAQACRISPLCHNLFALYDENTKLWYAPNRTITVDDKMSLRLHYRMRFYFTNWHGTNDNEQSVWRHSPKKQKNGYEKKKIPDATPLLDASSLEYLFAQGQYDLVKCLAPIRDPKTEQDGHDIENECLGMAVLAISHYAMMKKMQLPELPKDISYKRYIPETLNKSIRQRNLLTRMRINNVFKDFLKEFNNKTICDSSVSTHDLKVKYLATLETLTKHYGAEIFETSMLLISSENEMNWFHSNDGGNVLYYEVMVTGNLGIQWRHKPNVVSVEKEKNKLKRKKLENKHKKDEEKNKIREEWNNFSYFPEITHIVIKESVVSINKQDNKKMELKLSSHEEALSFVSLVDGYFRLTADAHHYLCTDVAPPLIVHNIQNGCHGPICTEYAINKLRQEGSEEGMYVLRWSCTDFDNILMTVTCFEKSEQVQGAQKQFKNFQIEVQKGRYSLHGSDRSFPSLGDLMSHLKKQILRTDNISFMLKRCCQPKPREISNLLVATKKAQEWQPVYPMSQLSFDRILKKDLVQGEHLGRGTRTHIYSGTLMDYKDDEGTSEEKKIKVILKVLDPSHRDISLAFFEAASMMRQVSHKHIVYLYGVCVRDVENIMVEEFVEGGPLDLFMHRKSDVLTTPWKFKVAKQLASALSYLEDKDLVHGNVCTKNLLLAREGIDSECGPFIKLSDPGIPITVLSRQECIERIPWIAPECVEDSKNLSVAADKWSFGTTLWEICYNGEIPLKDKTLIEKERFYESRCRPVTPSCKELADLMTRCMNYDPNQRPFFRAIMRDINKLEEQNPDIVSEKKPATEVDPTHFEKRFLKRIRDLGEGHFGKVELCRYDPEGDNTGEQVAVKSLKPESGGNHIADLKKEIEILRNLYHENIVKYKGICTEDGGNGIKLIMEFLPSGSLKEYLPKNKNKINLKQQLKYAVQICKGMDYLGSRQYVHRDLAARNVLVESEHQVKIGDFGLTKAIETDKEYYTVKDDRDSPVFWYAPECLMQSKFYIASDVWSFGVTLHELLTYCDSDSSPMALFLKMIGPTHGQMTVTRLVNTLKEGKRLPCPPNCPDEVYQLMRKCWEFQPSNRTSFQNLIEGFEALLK
Chain of Human JAK-2 (O60674 whole entry): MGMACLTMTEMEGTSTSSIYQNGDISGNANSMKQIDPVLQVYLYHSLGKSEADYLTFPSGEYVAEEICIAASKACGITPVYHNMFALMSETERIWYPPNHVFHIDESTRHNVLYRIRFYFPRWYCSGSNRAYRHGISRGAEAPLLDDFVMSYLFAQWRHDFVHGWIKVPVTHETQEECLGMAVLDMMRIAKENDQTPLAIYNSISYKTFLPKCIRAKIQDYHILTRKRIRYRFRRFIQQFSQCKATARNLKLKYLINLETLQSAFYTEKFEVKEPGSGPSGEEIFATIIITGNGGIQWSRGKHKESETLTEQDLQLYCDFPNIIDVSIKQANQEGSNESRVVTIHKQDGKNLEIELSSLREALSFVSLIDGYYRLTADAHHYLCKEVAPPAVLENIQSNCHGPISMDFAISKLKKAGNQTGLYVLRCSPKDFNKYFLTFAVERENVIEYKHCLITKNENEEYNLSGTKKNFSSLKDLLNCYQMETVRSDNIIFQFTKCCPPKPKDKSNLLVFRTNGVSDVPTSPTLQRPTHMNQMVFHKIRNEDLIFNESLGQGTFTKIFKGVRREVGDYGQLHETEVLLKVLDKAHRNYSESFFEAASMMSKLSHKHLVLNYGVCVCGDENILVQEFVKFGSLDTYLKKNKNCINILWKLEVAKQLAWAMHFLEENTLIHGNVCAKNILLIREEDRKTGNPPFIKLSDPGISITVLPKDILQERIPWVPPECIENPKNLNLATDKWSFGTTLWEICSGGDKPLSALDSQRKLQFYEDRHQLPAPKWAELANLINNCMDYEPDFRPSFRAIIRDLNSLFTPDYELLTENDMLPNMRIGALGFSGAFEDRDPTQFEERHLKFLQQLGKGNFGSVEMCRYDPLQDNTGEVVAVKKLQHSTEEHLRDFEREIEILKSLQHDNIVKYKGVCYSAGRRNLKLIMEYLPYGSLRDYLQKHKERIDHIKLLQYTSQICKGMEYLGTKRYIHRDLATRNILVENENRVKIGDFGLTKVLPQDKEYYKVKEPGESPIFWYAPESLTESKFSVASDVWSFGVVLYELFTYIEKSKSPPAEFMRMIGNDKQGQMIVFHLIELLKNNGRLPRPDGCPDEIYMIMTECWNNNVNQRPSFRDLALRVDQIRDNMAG
T2 sequence (P29597 whole entry): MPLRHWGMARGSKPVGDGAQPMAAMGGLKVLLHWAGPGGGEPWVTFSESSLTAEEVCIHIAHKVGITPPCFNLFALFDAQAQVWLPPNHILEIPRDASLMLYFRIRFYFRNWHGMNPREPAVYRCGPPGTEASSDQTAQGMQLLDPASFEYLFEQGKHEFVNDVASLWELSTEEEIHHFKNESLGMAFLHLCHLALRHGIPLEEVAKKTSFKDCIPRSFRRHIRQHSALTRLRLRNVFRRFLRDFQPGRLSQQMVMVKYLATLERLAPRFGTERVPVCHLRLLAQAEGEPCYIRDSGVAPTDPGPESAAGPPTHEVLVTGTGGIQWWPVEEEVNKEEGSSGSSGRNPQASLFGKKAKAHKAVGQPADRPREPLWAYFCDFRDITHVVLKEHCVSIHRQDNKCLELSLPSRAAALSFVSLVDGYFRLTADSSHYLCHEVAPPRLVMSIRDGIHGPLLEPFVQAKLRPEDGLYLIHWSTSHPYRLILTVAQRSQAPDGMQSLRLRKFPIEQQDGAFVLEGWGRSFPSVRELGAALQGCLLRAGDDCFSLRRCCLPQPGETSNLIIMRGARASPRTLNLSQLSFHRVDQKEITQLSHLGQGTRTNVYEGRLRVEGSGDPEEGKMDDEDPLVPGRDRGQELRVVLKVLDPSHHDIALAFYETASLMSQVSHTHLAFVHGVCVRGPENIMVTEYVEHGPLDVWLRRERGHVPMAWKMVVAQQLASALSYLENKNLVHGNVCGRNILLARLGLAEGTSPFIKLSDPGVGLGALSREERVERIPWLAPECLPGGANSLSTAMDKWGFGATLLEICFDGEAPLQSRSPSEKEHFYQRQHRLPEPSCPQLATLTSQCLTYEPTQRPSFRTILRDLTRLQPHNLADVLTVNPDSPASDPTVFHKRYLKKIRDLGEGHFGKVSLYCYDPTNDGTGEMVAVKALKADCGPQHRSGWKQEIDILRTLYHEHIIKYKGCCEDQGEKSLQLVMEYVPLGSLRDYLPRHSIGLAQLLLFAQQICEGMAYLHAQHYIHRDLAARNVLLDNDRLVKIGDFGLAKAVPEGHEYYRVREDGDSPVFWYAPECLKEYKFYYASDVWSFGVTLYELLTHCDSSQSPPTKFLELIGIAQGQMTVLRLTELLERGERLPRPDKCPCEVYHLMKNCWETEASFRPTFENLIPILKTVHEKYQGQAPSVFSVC

Compound | IC50 [1] | JAK1/JAK2 selectivity [1] | IC50 [2] | IC50 [3] | IC50 [4]
O=C(CN1CCN(c2ncnc3[nH]ccc23)CC1)Nc1ccc(S(=O)(=O)N2CCC2)cc1 [Compound 4, 2-(4-(7H-pyrrolo[2,3-d]pyrimidin-4-yl)piperazin-1-yl)-N-(4-(azetidin-1-ylsulfonyl)phenyl) acetamide] | 250 to 500 nM | 24 | > 1000 nM | > 1000 nM | > 1000 nM
NS(=O)(=O)c1cccc(NC(=O)CN2CCN(c3nc[nH]c4nccc3-4)CC2)c1 [Compound 27, 2-(4-{1H-pyrrolo[2,3-d]pyrimidin-4-yl}piperazin-1-yl)-N-(3-sulfamoylphenyl)acetamide] | < 250 nM | 14 | > 1000 nM |  | 
CC(C)NS(=O)(=O)c1ccc(NC(=O)[C@H](C)N2CCN(c3ncnc4[nH]ccc34)CC2)cc1 [Compound 19, (S)-2-(4-(7H-pyrrolo[2,3-d]pyrimidin-4-yl)piperazin-1-yl)-N-(4-(N-isopropylsulfamoyl)phenyl)propenamide] | < 250 nM | 8 | > 1000 nM | > 1000 nM | 
O=C(Nc1ccccc1)C1CCN(C(=O)CN2CCN(c3ncnc4[nH]ccc34)CC2)CC1 [Compound 16, 1-(2-(4-(7H-pyrrolo[2,3-d]pyrimidin-4-yl)piperazin-1-yl)acetyl)-N-phenylpiperidine-4-carboxamide] | 250 to 500 nM | 19 | > 1000 nM |  | 
CC(C)N(C)C(=O)C1CCN(C(=O)CN2CCN(c3nc[nH]c4nccc3-4)CC2)CC1 [Compound 24, N-methyl-N-(propan-2-yl)-1-[2-(4-{1H-pyrrolo[2,3-d]pyrimidin-4-yl}piperazin-1-yl)acetyl]piperidine-4-carboxamide] | > 1000 nM |  | > 1000 nM |  | 
O=C(CN1CCN(c2nc[nH]c3nccc2-3)CC1)N1CCC(Cc2ccccc2)CC1 [Compound 26, 1-(4-benzylpiperidin-1-yl)-2-(4-{1H-pyrrolo[2,3-d]pyrimidin-4-yl}piperazin-1-yl)ethan-1-one] | 250 to 500 nM | >22 | > 1000 nM |  | 
CCN(CC)S(=O)(=O)c1ccc(NC(=O)CN2CCN(c3ncnc4[nH]ccc34)CC2)cc1 [Compound 15, 2-(4-(7H-pyrrolo[2,3-d]pyrimidin-4-yl)piperazin-1-yl)-N-(4-(N,N-diethylsulfamoyl)phenyl)acetamide] | 250 to 500 nM | 9 | > 1000 nM |  | 
CN(C)S(=O)(=O)c1ccc(NC(=O)CN2CCN(c3ncnc4[nH]ccc34)CC2)cc1Cl [Compound 6, 2-(4-(7H-pyrrolo[2,3-d]pyrimidin-4-yl)piperazin-1-yl)-N-(3-chloro-4-(N,N-dimethylsulfamoyl)phenyl)acetamide] |  |  | > 1000 nM | > 1000 nM | > 1000 nM
O=C(CN1CCN(c2nc[nH]c3nccc2-3)CC1)Nc1ccc(S(=O)(=O)Nc2ncccn2)cc1 [Compound 25, N-{4-[(pyrimidin-2-yl)sulfamoyl]phenyl}-2-(4-{1H-pyrrolo[2,3-d]pyrimidin-4-yl}piperazin-1-yl)acetamide] | < 250 nM | 1 | < 250 nM |  | 
O=C(CN1CCN(c2nc[nH]c3nccc2-3)CC1)N1CCN(C(=O)Nc2ccccc2)CC1 [Compound 28, N-phenyl-4-[2-(4-{1H-pyrrolo[2,3-d]pyrimidin-4-yl}piperazin-1-yl)acetyl]piperazine-1-carboxamide] | 250 to 500 nM | 19 | > 1000 nM |  | 
CC1CCCN(C(=O)C2CCN(C(=O)CN3CCN(c4nc[nH]c5nccc4-5)CC3)CC2)C1 (stereo not shown) [Compound 23, 1-[4-(3-methylpiperidine-1-carbonyl)piperidin-1-yl]-2-(4-[1H-pyrrolo[2,3-d]pyrimidin-4-yl]piperazin-1-yl)ethan-1-one] | > 1000 nM |  | > 1000 nM |  | 

More lines, main results first:

IC50 [1] | JAK1/JAK2 selectivity [1] | IC50 [2] | IC50 [3] | Compound | IC50 [4]
500 to 1000 nM | 11 | > 1000 nM |  | CN(C)S(=O)(=O)c1cccc(NC(=O)CN2CCN(c3nc[nH]c4nccc3-4)CC2)c1 [Compound 29, N-[3-(dimethylsulfamoyl)phenyl]-2-(4-{1H-pyrrolo[2,3-d]pyrimidin-4-yl}piperazin-1-yl)acetamide] | 
250 to 500 nM | 11 | > 1000 nM |  | CN(C)S(=O)(=O)c1ccc(NC(=O)CCN2CCN(c3nc[nH]c4nccc3-4)CC2)cc1 [Compound 40] | 
500 to 1000 nM | 11 | > 1000 nM |  | Cc1ccc(NC(=O)CN2CCN(c3nc[nH]c4nccc3-4)CC2)cc1S(=O)(=O)N(C)C [Compound 35, N-[3-(dimethylsulfamoyl)-4-methylphenyl]-2-(4-{1H-pyrrolo[2,3-d]pyrimidin-4-yl}piperazin-1-yl)acetamide] | 
> 1000 nM | 9 | > 1000 nM |  | CC(C(=O)Nc1cccc(S(=O)(=O)N(C)C)c1)N1CCN(c2nc[nH]c3nccc2-3)CC1 (stereo not shown) [Compound 36] | 
250 to 500 nM | 23 | > 1000 nM |  | CN(C)S(=O)(=O)c1cc(NC(=O)CN2CCN(c3nc[nH]c4nccc3-4)CC2)ccc1Cl [Compound 34, N-[4-chloro-3-(dimethylsulfamoyl)phenyl]-2-(4-{1H-pyrrolo[2,3-d]pyrimidin-4-yl}piperazin-1-yl)acetamide] | 
250 to 500 nM | 15 | > 1000 nM |  | CC(C)N(C)S(=O)(=O)c1ccc(NC(=O)CN2CCN(c3nc[nH]c4nccc3-4)CC2)cc1 [Compound 37, N-{4-[methyl(propan-2-yl)sulfamoyl]phenyl}-2-(4-{1H-pyrrolo[2,3-d]pyrimidin-4-yl}piperazin-1-yl)acetamide] | 
250 to 500 nM | 23 | > 1000 nM |  | O=C(CN1CCN(c2nc[nH]c3nccc2-3)CC1)Nc1cccc(S(=O)(=O)N2CCCC2)c1 [Compound 32, N-[3-(pyrrolidine-1-sulfonyl)phenyl]-2-(4-{1H-pyrrolo[2,3-d]pyrimidin-4-yl}piperazin-1-yl)acetamide] | 
500 to 1000 nM | 1 | > 1000 nM |  | O=C(CCN1CCN(c2nc[nH]c3nccc2-3)CC1)Nc1cccc(S(=O)(=O)N2CCCC2)c1 [Compound 39] | 
500 to 1000 nM | 6 | > 1000 nM |  | NS(=O)(=O)c1cccc(NC(=O)CCN2CCN(c3nc[nH]c4nccc3-4)CC2)c1 [Compound 38] | 
> 1000 nM | 6 | > 1000 nM |  | O=C(CN1CCN(c2nc[nH]c3nccc2-3)CC1)Nc1cccc(S(=O)(=O)N2CCOCC2)c1 [Compound 30, N-[3-(morpholine-4-sulfonyl)phenyl]-2-(4-{1H-pyrrolo[2,3-d]pyrimidin-4-yl}piperazin-1-yl)acetamide] | 
< 250 nM | >100 | > 1000 nM |  | O=C(CN1CCN(c2nc[nH]c3nccc2-3)CC1)Nc1ccc(/N=N/c2ccccc2)cc1 [Compound 33, N-[4-(2-phenyldiazen-1-yl)phenyl]-2-(4-{1H-pyrrolo[2,3-d]pyrimidin-4-yl}piperazin-1-yl)acetamide] | 
500 to 1000 nM | 10 | > 1000 nM |  | CN(C)S(=O)(=O)c1ccccc1CNC(=O)CN1CCN(c2nc[nH]c3nccc2-3)CC1 [Compound 41, N-{[2-(dimethylsulfamoyl)phenyl]methyl}-2-(4-{1H-pyrrolo[2,3-d]pyrimidin-4-yl}piperazin-1-yl)acetamide] | 
< 250 nM | 4 | > 1000 nM |  | O=C(CN1CCN(c2nc[nH]c3nccc2-3)CC1)Nc1ccc(S(=O)(=O)N2CCCCC2)cc1 [Compound 31, N-[4-(piperidine-1-sulfonyl)phenyl]-2-(4-{1H-pyrrolo[2,3-d]pyrimidin-4-yl}piperazin-1-yl)acetamide] | 
